Values after ≈ are worked out from the molar mass of the structure shown.
System: Mycobacterium tuberculosis
Assay: Antimycobacterial activity against multi-drug resistant Mycobacterium tuberculosis
Assay type: functional

| SMILES | MIC |
| --- | --- |
| NNC(=O)c1ccncc1 [ISONIAZID] | 4 µg/mL (≈ 29.2 µM) |
| O=C1c2ccccc2-n2c1nc1ccccc1c2=O [TRYPTANTHRIN] | 0.5 µg/mL (≈ 2.01 µM) |
